Experimental data as given in paper PMC3777193, “Diaryl- and triaryl-pyrrole derivatives: inhibitors of the MDM2–p53 and MDMX–p53 protein–protein interactions” (Medchemcomm, 2013).
Like-named read-outs stand apart in the source and are kept apart here.

Assays:
SN40R2 = experiment: Growth inhibitory activity, SN40R2; conditions: read-out: GI50 SN40R2
Method: (§1) Growth inhibitory activity was determined for selected pyrroles in a panel of cell lines with defined MDM2, MDMX and p53 status (Table 5).

MDM2–p53 = MDM2–p53 (Homo sapiens, UniProt Q00987); experiment: MDM2–p53 ELISA protein–protein binding assay
MRK-NU-1 = experiment: Growth inhibitory activity, MRK-NU-1; conditions: Homo sapiens, MRK-nu-1, read-out: GI50 MRK-NU-1
Method: as §1

SJSA-1 = experiment: Growth inhibitory activity, SJSA-1; conditions: Homo sapiens, SJSA-1, read-out: GI50 SJSA-1
Method: as §1

A2780CP70 cells = assay type: cell-based; conditions: A2780 CP70 (p53 mutant), 0.1, 0.2 and 5 μM, 4 h
MDMX–p53 = biological target: T1, MDMX–p53 (Homo sapiens, UniProt O15151); experiment: MDMX–p53 ELISA binding assay; conditions: read-out: MDMX IC50
T1 construct: host or cells: in vitro coupled T7 transcription and rabbit reticulocyte lysate translation
T1 sequence (O15151 1-490): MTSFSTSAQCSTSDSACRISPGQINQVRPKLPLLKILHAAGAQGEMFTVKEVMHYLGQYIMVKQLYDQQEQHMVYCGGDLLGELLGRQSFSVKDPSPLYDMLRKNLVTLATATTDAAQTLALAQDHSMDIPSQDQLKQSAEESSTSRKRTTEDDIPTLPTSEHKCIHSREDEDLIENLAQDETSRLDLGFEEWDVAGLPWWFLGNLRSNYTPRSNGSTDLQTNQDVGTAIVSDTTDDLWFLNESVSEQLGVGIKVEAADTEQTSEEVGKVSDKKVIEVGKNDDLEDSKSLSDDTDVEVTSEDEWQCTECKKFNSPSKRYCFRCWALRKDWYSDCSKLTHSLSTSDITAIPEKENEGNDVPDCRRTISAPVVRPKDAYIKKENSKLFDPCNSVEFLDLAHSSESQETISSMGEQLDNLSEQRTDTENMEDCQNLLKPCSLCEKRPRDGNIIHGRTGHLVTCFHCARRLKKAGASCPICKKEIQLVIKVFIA

SJSA-1 cells = assay type: cell-based; conditions: SJSA-1 (MDM2 amplified, p53wt), 5 μM, 4 h
A2780 cells = assay type: cell-based; conditions: A2780 (p53wt), 0.1, 0.2 and 5 μM, 4 h
MDM2 = conditions: read-out: MDM2–p53 IC50; cited from earlier work

Sequence of MDM2–p53 (Q00987 whole entry): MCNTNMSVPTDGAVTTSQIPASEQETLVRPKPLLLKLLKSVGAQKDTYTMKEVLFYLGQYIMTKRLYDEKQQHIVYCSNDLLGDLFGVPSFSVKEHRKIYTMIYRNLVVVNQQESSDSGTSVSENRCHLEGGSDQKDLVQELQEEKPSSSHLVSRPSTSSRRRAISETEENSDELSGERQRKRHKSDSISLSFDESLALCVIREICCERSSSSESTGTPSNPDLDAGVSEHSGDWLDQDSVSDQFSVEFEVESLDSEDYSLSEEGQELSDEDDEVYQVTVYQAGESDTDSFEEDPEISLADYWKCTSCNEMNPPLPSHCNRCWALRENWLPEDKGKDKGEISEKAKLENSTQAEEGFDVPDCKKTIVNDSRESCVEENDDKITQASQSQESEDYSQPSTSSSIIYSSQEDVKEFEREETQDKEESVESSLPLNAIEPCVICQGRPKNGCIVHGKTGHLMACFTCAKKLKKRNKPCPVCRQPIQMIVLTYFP

Structure (SMILES)	GI50 (SN40R2)	IC50 (MDM2–p53)	fold more potent than the comparable 2,5-dimethyl analogues (4a, 4b) (MDM2–p53)	IC50 (MDM2–p53; read-out: MDM2 IC50)	GI50 (MRK-NU-1)	GI50 (SJSA-1)	induction of MDM2, p53, and p21 (Western blot) (A2780CP70 cells)	IC50 (MDMX–p53)	induction of MDM2, p53, and p21 (Western blot) (SJSA-1 cells)	induction of MDM2 and p21 (Western blot) (A2780 cells)	IC50 (MDM2)
O=C1NC(=S)NC(=O)C1=Cc1cc(-c2ccccc2)n(-c2ccc(Cl)cc2)c1-c1ccccc1 [Compound 4c, 5-((1-(4-chlorophenyl)-2,5-diphenyl-1H-pyrrol-3-yl)methylene)-2-thioxodihydropyrimidine-4,6(1H,5H)-dione]	2800 ± 600 nM	120 ± 20 nM	5–10 fold	110 ± 30 nM	2300 ± 300 nM	2300 ± 200 nM	no induction	4200 ± 1200 nM	clearly visible	observed	–
CCOc1cc(C(C)(C)C)ccc1C1=N[C@@](C)(c2ccc(Cl)cc2)[C@@](C)(c2ccc(Cl)cc2)N1C(=O)N1CCN(CCCS(C)(=O)=O)CC1 [RG-7112]	–	–	–	–	–	–	–	–	–	–	12 nM
